How the values were obtained:
DGKzeta = DGKzeta (Homo sapiens, UniProt Q13574); experiment: In vitro DGK inhibition assay (ADP-Glo, liposomes), DGKzeta; assay type: biochemical; design: hDGKzeta(1-928)-N-His; His (N); made in house; host or cells: Sf21 insect cells (baculovirus); settings: 2 nM DGK ζ, 50 μM ATP, 125 uM DLG in liposomes, 1 hour reaction
Protocol: DGK α and ζ kinases use ATP to phosphorylate the substrate 1,2-dilauroyl-sn-glycerol (DLG, incorporated in the liposomes). ATP is converted to ADP as a result of this enzymatic reaction. After the kinase reaction, an ATP-depletion reagent is added to terminate the kinase reaction and deplete any remaining ATP, leaving only ADP. Second, a detection reagent is added to simultaneously convert ADP to ATP and allow the newly synthesized ATP to be converted to light using a coupled luciferase/luciferin reaction.
Purification of both enzymes was performed as previously described by Takahashi et al., PeerJ, 2018 (Takahashi, D.; Sakane, F. Expression and purification of human diacylglycerol kinase alpha from baculovirus-infected insect cells for structural studies. PeerJ 2018, 6, No. e5449).
A concentrated liposome solution was prepared in assay buffer without DTT and BSA: 2 mM of DLG in 21 mM of total liposome (2 mM DLG/8 mM PS/11 mM PC). The reaction mixtures contain the assay buffer with a final DLG concentration of 125 uM ATP concentrations of 25 μM (for DGKA assay) or 50 μM (for DGKZ assay). The reactions were started by addition of DGK a and (kinases at 4 nM and 2 nM final concentrations, respectively. After 1 hour reaction, the amount of ADP formed was detected with the ADP-Glo kinase assay (Promega) according to the manufacturer instructions. Compounds were added in 11-points dose response, starting at […], 1:3 dilutions, with a final DMSO concentration of 2%. The multidrop combi was used as a liquid handler and luminescence was read with 0.5 s by the envision reader (PE).

primary human T-cells = experiment: IL2 secretion measurements in CD3-stimulated T-cells; assay type: cell-based; settings: Homo sapiens, T-cell, 24 h, CD3 condition; for Emax: IL2 after 24 hours, 20 μM reference compound A1 = 100%, read-out: Emax IL2 (% activation); for EC50: IL2 secretion after 24 hours, read-out: Tcell IL2 CD3 EC50
Protocol: As readouts for T-cell activation, IL2 secretion after 24 hours and proliferation after 5 days was measured. Increases in IL2 secretion and proliferation upon compound treatment were assessed as the % of the maximum of reference compound A1. WO 2016/139181 discloses reference compound A1 as example 70. As a counter screen and to make sure that no unwanted TCR-independent activation was triggered, PBS conditions were run for all compounds.
Expanded primary human T-cells were thawed and cultured in RPMI 1640 (Gibco, #61870-010)+5% human serum (HS, Sigma, #H3667)+1 mM Sodium Pyruvate (Gibco, #11360-039)+50 μM 2-mercaptoethanol (Gibco, #31350-010) and 1× Pen-Strep (Life Technologies, #15140122) medium at density of 2 Mio/ml for 3 hours in 5% CO2, 37° C. and 95% humidity. For coating of plates, […] or PBS++ with CD3 antibody (concentration depending on donor and determined by CD3 titrations) was added 100 μl/well to Poly-D Lysine coated 96-well plates. Plates were sealed and incubated at room temperature for 3 hours on a table-top rocking platform. After incubation, plates were washed once with PBS−− and filled with 40 μl/well culture medium only. Compounds were then added (see next section) to medium only plates. After 3 hours of culturing the T-cells, cells were filtered through a cell strainer (Miltenyi Biotech, #130-041-407), counted again and concentration was adjusted to 1.25 Mio/ml.
Cells were then seeded 80 μl/well to the 40 μl/well including dispensed compounds according to plate layout. By adding cells, compounds were further diluted 1:3, and resulting in 100k cells/120 µl/well. After 24 hours 40 μl of supernatant was collected carefully from the top while not disturbing the cells and transferred into a round bottom 96 well plate. Collected and frozen supernatant was used for detection of IL2 using the IL-2 Human ProQuantum Immunoassay Kit (Invitrogen) or using the Human IL-2 ELISA Kit (Thermo Fisher).
Compound Treatment Compounds were added in a 5 or 6 pt dose response with the Tecan D300e Digital Dispenser, all conditions 3 times more concentrated than the end-concentration, since cells are added afterwards (80p1 cells to 40p1 prepared medium with treatment). The DR was starting at 20 μM or 10 μM final top concentration and a dilution factor of 3.333. The positive control was the reference compound A1 that was added in a dose response as well, additionally to 3 wells of only 20 μM representing the positive stimulator control. All wells were normalized with DMSO to a final concentration of 0.6% (0.2% end-concentration).
The immunoassay is done following the manufacturer's manual (Invitrogen, #A35603).
Additional information: For the immunoassay, MicroAmp™ EnduraPlate™ Optical 384-Well plates are used. Frozen supernatant is thawed and centrifuged for 5 minutes at 1000×g, both steps at 4° C. After centrifugation, required sample amount is taken from the top, and in a separate LightCycler V-bottom plate (working plate) diluted with assay dilution buffer, dilution factor depending on the PBS or CD3 condition but at least 1:3. IL-2 standard and blanks are prepared in the same V-bottom plate, standard with a range of 0.0128-5000 pg/ml (extended version). After preparation, 5 μl of sample dilutions or standard/blanks are transferred to the optical 384-well plate (assay plate) and the 10 μl reaction protocol is being followed. For measurement, the QuantStudio 12K Flex system is used. Raw data is extracted and IL-2 concentrations are calculated with the Thermo Fisher online app (apps.thermofisher.com/apps/proquantum).
ELISA is done following the manufacturer's manual (Thermo Fisher Scientific, #88-7025-88). Additional information: For the ELISA Nunc MaxiSorp 96 well plates are used. Frozen supernatant is thawed and centrifuged for 5 minutes at 1000×g, both steps at 4° C. […]

Sequence of DGKzeta (Q13574 whole entry): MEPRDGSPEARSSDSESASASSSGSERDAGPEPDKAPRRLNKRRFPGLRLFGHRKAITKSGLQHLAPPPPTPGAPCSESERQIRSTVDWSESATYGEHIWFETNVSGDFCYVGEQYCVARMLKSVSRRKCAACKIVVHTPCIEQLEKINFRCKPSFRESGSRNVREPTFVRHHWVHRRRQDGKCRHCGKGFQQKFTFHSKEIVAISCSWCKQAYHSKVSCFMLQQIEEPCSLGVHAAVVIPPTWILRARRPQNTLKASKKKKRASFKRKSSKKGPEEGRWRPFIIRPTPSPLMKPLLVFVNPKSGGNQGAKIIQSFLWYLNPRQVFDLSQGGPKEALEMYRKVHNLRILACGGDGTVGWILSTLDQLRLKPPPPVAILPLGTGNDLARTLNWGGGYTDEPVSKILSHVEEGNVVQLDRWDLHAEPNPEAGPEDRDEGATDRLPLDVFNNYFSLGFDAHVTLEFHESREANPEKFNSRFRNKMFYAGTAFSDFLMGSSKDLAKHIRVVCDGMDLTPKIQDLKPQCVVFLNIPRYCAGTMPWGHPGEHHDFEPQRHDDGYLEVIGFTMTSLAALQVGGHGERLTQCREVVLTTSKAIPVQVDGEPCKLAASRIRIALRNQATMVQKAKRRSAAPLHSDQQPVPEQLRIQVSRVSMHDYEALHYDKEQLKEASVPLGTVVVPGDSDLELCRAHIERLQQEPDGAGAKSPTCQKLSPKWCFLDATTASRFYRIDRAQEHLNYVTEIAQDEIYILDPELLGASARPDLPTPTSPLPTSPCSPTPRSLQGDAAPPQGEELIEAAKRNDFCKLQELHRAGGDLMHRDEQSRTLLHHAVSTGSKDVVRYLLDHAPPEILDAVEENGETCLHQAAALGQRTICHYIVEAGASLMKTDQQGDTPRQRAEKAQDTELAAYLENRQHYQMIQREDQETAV

| SMILES | IC50 (DGKzeta) [nM] | EC50 (primary human T-cells) [nM] | Emax (primary human T-cells) [%] |
| --- | --- | --- | --- |
| CC(C)(c1nnc(-c2ccc3c(c2)N(Cc2ccc(Oc4ccc(F)c(Cl)c4)cc2)C(=O)[C@@H](N)CS3(=O)=O)o1)S(C)(=O)=O [Example 37, (3R)-3-amino-5-[[4-(3-chloro-4-fluoro-phenoxy)phenyl]methyl]-7-[5-(1-methyl-1-methylsulfonyl-ethyl)-1,3,4-oxadiazol-2-yl]-1,1-dioxo-2,3-dihydro-1λ6,5-benzothiazepin-4-one] | 414 | 8140 | 135 |
| CC(C)(c1nnc(-c2ccc3c(c2)N(Cc2ccc(-c4ccc(C(F)(F)F)cn4)cc2)C(=O)[C@@H](N)CS3(=O)=O)o1)S(C)(=O)=O [Example 10] | 1750 | 1770 | 174 |
| CC(C)(c1nnc(-c2ccc3c(c2)N(Cc2ccc(Oc4ccccc4)cc2)C(=O)[C@@H](N)CS3(=O)=O)o1)S(=O)(=O)C1CC1 [Example 61, (3R)-3-amino-7-[5-(1-cyclopropylsulfonyl-1-methyl-ethyl)-1,3,4-oxadiazol-2-yl]-1,1-dioxo-5-[(4-phenoxyphenyl)methyl]-2,3-dihydro-1λ6,5-benzothiazepin-4-one] | 768 | 4210 | 89 |
| CC(C)(c1nnc(-c2ccc3c(c2)N(Cc2ccc(SC(F)(F)F)cc2)C(=O)[C@@H](N)CS3(=O)=O)o1)S(C)(=O)=O [Example 7] | 1710 | 2800 | 94 |
| CC(C)(c1nnc(-c2ccc3c(c2)N(Cc2ccc(Oc4cc(F)cc(C(F)(F)F)c4)cc2)C(=O)[C@@H](N)CS3(=O)=O)o1)S(C)(=O)=O [Example 39] | 2630 | 813 | 106 |
| CC(C)(c1nnc(-c2ccc3c(c2)N(Cc2ccc(OC4CCCC4)cc2)C(=O)[C@@H](N)CS3(=O)=O)o1)S(C)(=O)=O [Example 16, (3R)-3-amino-5-[[4-(cyclopentoxy)phenyl]methyl]-7-[5-(1-methyl-1-methylsulfonyl-ethyl)-1,3,4-oxadiazol-2-yl]-1,1-dioxo-2,3-dihydro-1λ6,5-benzothiazepin-4-one] | 820 | 6220 | 61 |
| CC(C)(c1nnc(-c2ccc3c(c2)N(Cc2ccc(OCc4ccccc4)cc2)C(=O)[C@@H](N)CS3(=O)=O)o1)S(C)(=O)=O [Example 11, (3R)-3-amino-5-[(4-benzyloxyphenyl)methyl]-7-[5-(1-methyl-1-methylsulfonyl-ethyl)-1,3,4-oxadiazol-2-yl]-1,1-dioxo-2,3-dihydro-1λ6,5-benzothiazepin-4-one] | 1060 | 932 | 140 |
| CC(C)(c1nc(-c2cc3c(cc2F)S(=O)(=O)C[C@H](N)C(=O)N3Cc2ccc(C3CCOCC3)cc2)no1)S(C)(=O)=O [Example 53, (3R)-3-amino-8-fluoro-7-[5-(1-methyl-1-methylsulfonyl-ethyl)-1,2,4-oxadiazol-3-yl]-1,1-dioxo-5-[(4-tetrahydropyran-4-ylphenyl)methyl]-2,3-dihydro-1λ6,5-benzothiazepin-4-one] |  | 4360 | 96 |

Further lines, with some results ahead:

| IC50 (DGKzeta) [nM] | EC50 (primary human T-cells) [nM] | SMILES | Emax (primary human T-cells) [%] |
| --- | --- | --- | --- |
| 539 | 580 | CC(C)(c1nnc(-c2ccc3c(c2)N(Cc2ccc(Oc4cccc(F)c4)cc2)C(=O)[C@@H](N)CS3(=O)=O)o1)S(C)(=O)=O [Example 33, (3R)-3-amino-5-[[4-(3-fluorophenoxy)phenyl]methyl]-7-[5-(1-methyl-1-methylsulfonyl-ethyl)-1,3,4-oxadiazol-2-yl]-1,1-dioxo-2,3-dihydro-1λ6,5-benzothiazepin-4-one] | 58 |
| 802 | 1020 | CC(C)(c1nnc(-c2ccc3c(c2)N(Cc2ccc(OCc4ccc(F)cc4)cc2)C(=O)[C@@H](N)CS3(=O)=O)o1)S(C)(=O)=O [Example 12, (3R)-3-amino-5-[[4-[(4-fluorophenyl)methoxy]phenyl]methyl]-7-[5-(1-methyl-1-methylsulfonyl-ethyl)-1,3,4-oxadiazol-2-yl]-1,1-dioxo-2,3-dihydro-1λ6,5-benzothiazepin-4-one] | 173 |
| 1110 | 3770 | CC(C)(c1nnc(-c2ccc3c(c2)N(Cc2ccc(OCc4ccccc4F)cc2)C(=O)[C@@H](N)CS3(=O)=O)o1)S(C)(=O)=O [Example 14, (3R)-3-amino-5-[[4-[(2-fluorophenyl)methoxy]phenyl]methyl]-7-[5-(1-methyl-1-methylsulfonyl-ethyl)-1,3,4-oxadiazol-2-yl]-1,1-dioxo-2,3-dihydro-1λ6,5-benzothiazepin-4-one] | 101 |
| 455 | 745 | Cc1cccc(Oc2ccc(CN3C(=O)[C@@H](N)CS(=O)(=O)c4ccc(-c5nnc(C(C)(C)S(C)(=O)=O)o5)cc43)cc2)c1 [Example 31] | 176 |
| 1080 | 1240 | COc1ccc(-c2ccc(CN3C(=O)[C@@H](N)CS(=O)(=O)c4ccc(-c5nnc(C(C)(C)S(C)(=O)=O)o5)cc43)cc2)cc1 [Example 21, (3R)-3-amino-5-[[4-(4-methoxyphenyl)phenyl]methyl]-7-[5-(1-methyl-1-methylsulfonyl-ethyl)-1,3,4-oxadiazol-2-yl]-1,1-dioxo-2,3-dihydro-1λ6,5-benzothiazepin-4-one] | 89 |
| 2330 | 381 | COc1ccc(-c2ccc(CN3C(=O)[C@@H](N)CS(=O)(=O)c4ccc(-c5noc(C(C)(C)S(C)(=O)=O)n5)cc43)cc2)cc1 [Example 63, (3R)-3-amino-5-[[4-(4-methoxyphenyl)phenyl]methyl]-7-[5-(1-methyl-1-methylsulfonyl-ethyl)-1,2,4-oxadiazol-3-yl]-1,1-dioxo-2,3-dihydro-1λ6,5-benzothiazepin-4-one] | 57 |
| 251 | 431 | COc1ccc(-c2ccc(CN3C(=O)[C@@H](N)CS(=O)(=O)c4cc(F)c(-c5nnc(C(C)(C)S(C)(=O)=O)o5)cc43)cc2)cc1 [Example 29, (3R)-3-amino-8-fluoro-5-[[4-(4-methoxyphenyl)phenyl]methyl]-7-[5-(1-methyl-1-methylsulfonyl-ethyl)-1,3,4-oxadiazol-2-yl]-1,1-dioxo-2,3-dihydro-1λ6,5-benzothiazepin-4-one] | 284 |

— patent US20260035364A1, “BICYCLIC TETRAHYDROTHIAZEPINE DERIVATIVES” (Hoffmann-La Roche Inc., priority 2022, published 2026)
